# Calls of active or inactive are those of the source. The rule behind the calls is not given here.
# Columns and labels:
# [1] = molecular target: TP53-binding protein 1 (Homo sapiens) (UniProt Q12888); assay: Effect on GST-fused 53BP1 Tudor domain (unknown origin)/biotinylated H4K20Me1 peptide interaction assessed as binding of 53BP1 to H4K20Me1 at 25 uM by pull down assay based western blot analysis
# [2] = molecular target: T1, Lethal(3)malignant brain tumor-like protein 3 (Homo sapiens) (UniProt Q96JM7); assay: Antagonist activity at His-tagged L3MBTL3 (unknown origin) assessed as inhibition of L3MBTL3/biotinylated H4K20Me2 peptide interaction at 30 uM after 30 mins by AlphaScreen assay
# T1 sequence (whole entry): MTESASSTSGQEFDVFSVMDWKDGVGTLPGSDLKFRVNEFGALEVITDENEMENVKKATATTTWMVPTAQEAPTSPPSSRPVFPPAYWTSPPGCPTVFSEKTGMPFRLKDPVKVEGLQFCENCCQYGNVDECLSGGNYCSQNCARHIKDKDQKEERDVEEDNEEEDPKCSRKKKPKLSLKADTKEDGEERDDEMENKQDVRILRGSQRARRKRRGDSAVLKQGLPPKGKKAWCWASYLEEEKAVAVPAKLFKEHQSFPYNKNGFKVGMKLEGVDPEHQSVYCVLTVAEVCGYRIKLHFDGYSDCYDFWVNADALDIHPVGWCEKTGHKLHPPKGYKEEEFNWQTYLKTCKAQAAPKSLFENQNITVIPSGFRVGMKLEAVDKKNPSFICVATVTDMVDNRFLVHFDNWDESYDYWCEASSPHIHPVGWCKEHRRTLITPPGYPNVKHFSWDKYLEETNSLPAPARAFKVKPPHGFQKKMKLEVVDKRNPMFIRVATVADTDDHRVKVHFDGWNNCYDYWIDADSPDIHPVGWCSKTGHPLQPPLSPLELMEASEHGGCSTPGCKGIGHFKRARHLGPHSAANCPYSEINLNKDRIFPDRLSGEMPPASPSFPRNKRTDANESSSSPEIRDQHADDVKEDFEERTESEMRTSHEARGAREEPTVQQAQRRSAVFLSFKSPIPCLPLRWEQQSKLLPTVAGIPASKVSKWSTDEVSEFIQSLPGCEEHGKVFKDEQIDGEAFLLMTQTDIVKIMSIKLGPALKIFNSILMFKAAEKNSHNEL
# [3] = tested on: T2, Lethal(3)malignant brain tumor-like protein 1 (Homo sapiens), Q9Y468 [D355N]; conditions: 5 to 25 uM
# T2 sequence (whole entry): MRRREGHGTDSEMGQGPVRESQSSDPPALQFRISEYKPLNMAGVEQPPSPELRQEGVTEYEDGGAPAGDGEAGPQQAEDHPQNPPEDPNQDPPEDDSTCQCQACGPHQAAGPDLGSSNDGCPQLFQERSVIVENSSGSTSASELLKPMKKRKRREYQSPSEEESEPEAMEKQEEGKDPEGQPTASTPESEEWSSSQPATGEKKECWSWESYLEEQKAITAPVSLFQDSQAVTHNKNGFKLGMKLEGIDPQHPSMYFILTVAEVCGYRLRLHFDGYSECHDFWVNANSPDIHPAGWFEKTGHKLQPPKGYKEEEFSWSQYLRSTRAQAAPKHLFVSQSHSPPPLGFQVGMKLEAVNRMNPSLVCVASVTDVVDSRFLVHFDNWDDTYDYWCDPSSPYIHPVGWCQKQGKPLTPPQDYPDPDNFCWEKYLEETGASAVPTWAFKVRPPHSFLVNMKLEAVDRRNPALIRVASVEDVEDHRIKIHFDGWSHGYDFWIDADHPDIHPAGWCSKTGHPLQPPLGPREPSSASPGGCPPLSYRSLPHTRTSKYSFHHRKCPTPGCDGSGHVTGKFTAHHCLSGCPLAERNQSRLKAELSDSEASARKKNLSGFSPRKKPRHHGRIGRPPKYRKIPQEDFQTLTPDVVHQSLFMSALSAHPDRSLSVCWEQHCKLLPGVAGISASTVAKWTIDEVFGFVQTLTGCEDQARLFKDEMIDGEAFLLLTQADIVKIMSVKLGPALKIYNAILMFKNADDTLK
# Description: Inhibition of GST-fused L3MBTL1 3xMBT-D355N mutant (unknown origin)/biotinylated H4K20Me1 peptide interaction at 5 to 25 uM by pull down assay based western blot analysis
# [4] = molecular target: TP53-binding protein 1 (Homo sapiens) (UniProt Q12888); assay: Effect on GST-fused 53BP1 Tudor domain (unknown origin)/biotinylated H4K20Me1 peptide interaction assessed as binding of 53BP1 to H4K20Me1 at 5 uM by pull down assay based western blot analysis
# Chain of TP53-binding protein 1 (Homo sapiens) (Q12888 whole entry, the tested form may be a part): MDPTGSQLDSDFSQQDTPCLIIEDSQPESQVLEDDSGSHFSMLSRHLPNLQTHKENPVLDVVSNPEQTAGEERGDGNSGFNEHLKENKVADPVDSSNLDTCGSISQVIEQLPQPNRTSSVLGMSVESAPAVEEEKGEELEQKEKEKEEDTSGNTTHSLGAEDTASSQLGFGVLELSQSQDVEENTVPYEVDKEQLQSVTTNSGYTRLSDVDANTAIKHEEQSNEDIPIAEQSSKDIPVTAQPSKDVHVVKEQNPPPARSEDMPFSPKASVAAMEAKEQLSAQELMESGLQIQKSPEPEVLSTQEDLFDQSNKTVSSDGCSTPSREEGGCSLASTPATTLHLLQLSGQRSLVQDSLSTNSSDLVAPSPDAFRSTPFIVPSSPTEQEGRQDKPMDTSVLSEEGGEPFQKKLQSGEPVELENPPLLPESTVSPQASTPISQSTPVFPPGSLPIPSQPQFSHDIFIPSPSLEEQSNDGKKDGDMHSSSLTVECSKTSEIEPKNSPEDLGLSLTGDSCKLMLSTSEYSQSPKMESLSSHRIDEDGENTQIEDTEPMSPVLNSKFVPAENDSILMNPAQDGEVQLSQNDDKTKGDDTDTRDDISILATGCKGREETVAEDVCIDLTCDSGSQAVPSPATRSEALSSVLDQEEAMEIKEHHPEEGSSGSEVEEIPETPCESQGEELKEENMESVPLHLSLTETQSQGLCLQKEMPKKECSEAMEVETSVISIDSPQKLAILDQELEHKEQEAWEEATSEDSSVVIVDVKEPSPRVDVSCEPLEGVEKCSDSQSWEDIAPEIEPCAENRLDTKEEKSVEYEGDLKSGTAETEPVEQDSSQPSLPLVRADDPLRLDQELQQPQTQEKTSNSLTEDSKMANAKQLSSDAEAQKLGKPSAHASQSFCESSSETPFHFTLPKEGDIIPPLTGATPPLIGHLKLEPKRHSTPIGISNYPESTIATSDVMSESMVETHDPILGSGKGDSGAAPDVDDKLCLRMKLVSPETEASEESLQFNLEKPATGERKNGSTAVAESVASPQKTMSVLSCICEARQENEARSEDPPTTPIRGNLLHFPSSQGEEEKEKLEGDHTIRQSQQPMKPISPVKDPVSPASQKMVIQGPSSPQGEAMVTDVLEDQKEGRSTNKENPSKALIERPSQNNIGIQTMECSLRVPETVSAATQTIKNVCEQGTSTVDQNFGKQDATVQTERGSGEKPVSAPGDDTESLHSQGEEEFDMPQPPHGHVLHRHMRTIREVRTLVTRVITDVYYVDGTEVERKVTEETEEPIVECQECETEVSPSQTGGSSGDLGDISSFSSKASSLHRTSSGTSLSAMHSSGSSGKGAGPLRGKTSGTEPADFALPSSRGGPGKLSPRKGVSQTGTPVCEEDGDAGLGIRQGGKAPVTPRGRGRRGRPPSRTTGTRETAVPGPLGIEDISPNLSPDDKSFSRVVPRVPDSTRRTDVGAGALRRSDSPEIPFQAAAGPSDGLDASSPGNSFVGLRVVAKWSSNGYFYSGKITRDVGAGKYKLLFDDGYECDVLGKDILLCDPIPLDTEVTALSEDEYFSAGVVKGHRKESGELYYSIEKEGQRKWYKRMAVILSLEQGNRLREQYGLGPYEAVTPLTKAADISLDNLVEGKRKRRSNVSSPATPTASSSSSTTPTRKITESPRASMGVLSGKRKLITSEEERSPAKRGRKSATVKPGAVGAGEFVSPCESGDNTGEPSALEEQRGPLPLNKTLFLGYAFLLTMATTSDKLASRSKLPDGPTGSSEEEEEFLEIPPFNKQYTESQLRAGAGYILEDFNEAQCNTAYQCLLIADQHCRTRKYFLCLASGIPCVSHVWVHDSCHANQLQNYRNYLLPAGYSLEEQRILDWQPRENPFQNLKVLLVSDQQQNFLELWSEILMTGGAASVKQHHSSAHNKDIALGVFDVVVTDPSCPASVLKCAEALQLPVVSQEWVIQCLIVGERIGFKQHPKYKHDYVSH
Activity [1] [%],Activity [4] [%],SMILES,inhibition [2] [%],inhibition [3]
91,120,O=C(c1cccc(Br)c1)N1CCC(N2CCCCC2)CC1,21,inactive
,,O=C(c1cccc(Br)c1)N1CCC(C2CCCN2)CC1 (centres undefined),52,
,,CC1CCCN1C1CCN(C(=O)c2cccc(Br)c2)CC1 (centres undefined),25,
,,O=C(c1cccc(Br)c1)N1CCC(N2CCCC2)C1 (centres undefined),40,
106,124,O=C(c1cccc(Br)c1)N1CCC(N2CCCC2)CC1,,inactive
,,CN(C)C1CCN(C(=O)c2cccc(Br)c2)CC1,18,
,,C[N+]1(C2CCN(C(=O)c3cccc(Br)c3)CC2)CCCC1,13,
,,O=C(c1cccc(Br)c1)N1CCN(C2CCCC2)CC1,5,
,,CNC1CCN(C(=O)c2cccc(Br)c2)CC1,9,

# Reference: ChEMBL document CHEMBL3217594, “Structureactivity relationships of methyl-lysine reader antagonists” (Medchemcomm, 2012)
